Experimental data: patent US12378263B2, “Modulators of sestrin-GATOR2 interaction and uses thereof” (Navitor Pharmaceuticals, Inc., priority 2015, dated 2025)

target: T1, GATOR2/Sestrin2 complexes (Homo sapiens, UniProt P58004); experiment: In vitro PPI assay (Method 1): Sestrin2 bound to GATOR2, western blot, % activity relative to leucine; assay type: binding; details: compound at 25 μM; leucine 25 μM = 100% activity; duplicate
T1 construct: The Flag-WDR24/endogenous-Sestrin2 complex was isolated as follows; expressed in transfected cells; host or cells: HEK293T cells stably expressing FLAG-WDR24 (lentiviral vector pLJM60); Sestrin2 and the remaining GATOR2 subunits are endogenous
T1 sequence (P58004 1-480): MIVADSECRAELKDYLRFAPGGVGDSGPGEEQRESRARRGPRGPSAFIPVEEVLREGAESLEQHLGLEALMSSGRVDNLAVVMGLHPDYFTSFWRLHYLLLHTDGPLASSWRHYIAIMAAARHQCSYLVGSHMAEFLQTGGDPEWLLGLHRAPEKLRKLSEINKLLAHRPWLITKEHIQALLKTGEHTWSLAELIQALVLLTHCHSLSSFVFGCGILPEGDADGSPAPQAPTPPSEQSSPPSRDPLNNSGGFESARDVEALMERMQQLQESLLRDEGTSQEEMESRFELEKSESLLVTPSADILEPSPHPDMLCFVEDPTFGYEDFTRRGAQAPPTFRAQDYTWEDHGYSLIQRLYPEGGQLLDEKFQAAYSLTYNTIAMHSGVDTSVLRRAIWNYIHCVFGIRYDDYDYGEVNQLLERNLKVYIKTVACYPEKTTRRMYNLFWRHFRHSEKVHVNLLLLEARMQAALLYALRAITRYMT
Description: This screening assay measured test compound activity in vitro on GATOR2/Sestrin2 complexes purified via immunoprecipitation of stably expressed FLAG-WDR24 from HEK293T cells. HEK293T cells (293 Ts) were engineered to stably express N-terminally tagged FLAG-WDR24 via transduction by lentivirus. Lentiviruses were produced by co-transfection of the lentiviral transfer vector pLJM60 with the […] into HEK-293T cells using the XTremeGene 9 transfection reagent (Roche Diagnostics). The media was changed 24 hours post-transfection to Dulbecco's Modified Eagle's media (DMEM) supplemented with 30% Inactivated Fetal Serum. The virus-containing supernatants were collected 48 and 72 hours after transfection and passed through a 0.45 μm filter to eliminate cells. Target cells in 6-well tissue culture plates were infected in media containing 8 μg/mL polybrene and spin infections were performed by centrifugation at 2,200 rpm for 1 hour. Twenty-four hours after infection, the virus was removed and the cells selected with the appropriate antibiotic. Cells were then grown in DMEM supplemented with 10% fetal bovine serum and antibiotics.
Seventy-two hours later, cells were placed in standard RPMI media formulated with no amino acids and supplemented with 5 mM Glucose (−AA RPMI, US Biological Life Sciences) for 1 hour then subsequently lysed in lysis buffer (40 mM HEPES, 1% Triton, 10 mM sodium β-glycerophosphate, 10 mM sodium pyrophosphate, 2.5 mM MgCl2 and protease inhibitors). […]
The resulting western blots were scanned and band intensities corresponding to Sestrin2 and FLAG-WDR24 were quantified using the LI-COR® imaging platform. […]
This screening assay measured compound activity in vitro on GATOR2/Sestrin2 complexes purified via immunoprecipitation of stably expressed Flag-WDR24 from HEK293T cells. […]

SMILES | Activity of Leucine: % Activity
CC(C)CCC(N)C(=O)O (stereo not drawn) [Example I-41] | A (% activity relative to leucine of ≥40%)
CC(C)C[C@H](N)C(=O)NC(C)(C)C [Example I-165] | A to C
CC(C)C[C@H](N)S(=O)(=O)O [Example I-157] | B to C

test system: mTORC1; experiment: Cell-based mTORC1 activation (Method 2), western blot of phosphorylated S6 Kinase and 4EBP1 in HEK293T cells; details: 100 μM; shift relative to DMSO control; HEK293T cells after leucine starvation
Protocol: Briefly, 800,000 HEK293T cells were plated in each well of a 6-well plate in DMEM supplemented with 10% fetal bovine serum and antibiotics. […] Cells were then lysed, processed for SDS-PAGE and western blotting was performed with antibodies directed against the mTORC1 substrates phosphorylated S6 Kinase (Thr389) and phosphorylated 4EBP1 (Thr37/46) (Cell Signaling Technology) and loading controls (beta-actin, Santa Cruz Biotechnology) as described in Kang, S. A., et al. Science 341(6144): 364-374 (2013). The intensity of the bands corresponding to the phosphorylated substrates were then normalized to the actin band using the LI-COR® imaging platform.

SMILES | Cell-Based mTORC1 Activation
NC(CCCC(F)(F)F)C(=O)O (stereo not drawn) [Example I-42] | D to F
CC(C)C(F)(F)[C@H](N)C(=O)O [Example I-46, (R)-2-amino-3,3-difluoro-4-methylpentanoic acid] | D (a shift relative to DMSO control of 0.5 to 2 fold)
N[C@H](CCCC(F)(F)F)C(=O)O [Example I-9, (R)-2-amino-6,6,6-trifluorohexanoic acid] | E (a shift relative to DMSO of 2.1-5 fold)
CC(C)(C)C[C@H](N)C(=O)O [Example I-43] | D to E
CC(C)C[C@H](N)C(=O)O [Example I-44] | D (a shift relative to DMSO control of 0.5 to 2 fold)
CC(C)C[C@H](N)C(N)=O.Cl [Example I-23] | D to F
COC(=O)[C@@H](N)CC(C)C [Example I-168] | D to E
C[C@H](CC(N)C(=O)O)C(F)(F)F (stereo in doubt) [Example I-167, (2R,4R)-2-amino-5,5,5-trifluoro-4-methylpentanoic acid] | D to F
CC(C)C(F)(F)[C@@H](N)C(=O)O [Example I-47, (S)-2-amino-3,3-difluoro-4-methylpentanoic acid] | D (a shift relative to DMSO control of 0.5 to 2 fold)
N[C@@H](CC1CCC1)C(=O)O [Example I-37] | E to F

same assay, conditions: 30 and 100 μM; shift relative to DMSO control; HEK293T cells after leucine starvation

SMILES | Cell-Based mTORC1 Activation
CC(C)C[C@@H](N)B1OC(C)(C)C(C)(C)O1 [Example I-10] | D (a shift relative to DMSO control of 0.5 to 2 fold)

target: T2, Sestrin2 (Homo sapiens, UniProt P58004); experiment: Indirect ligand binding assay (ILBA, Method 7), immunoprecipitation with CST anti-Sestrin2 antibody; details: crude lysate of amino acid starved human cell line, 1 hour incubation
T2 construct: crude lysate generated from a human cell line; endogenous in cells; host or cells: Unnamed human cell line (crude lysate)
T2 sequence (P58004 1-480): T1 sequence (P58004 1-480)
Protocol: Conversely, compounds that destabilized Sestrin2 as measured by thermal shift assay increased the affinity of the CST antibody for non-denatured Sestrin2. […] In one version, the assay was performed with crude lysate generated from a human cell line after a 1-hour period of amino acid starvation (cells are lysed in 1% Triton, 10 mM beta-glycerol phosphate, 10 mM sodium pyrophosphate, 40 mM HEPES [pH 7.4], 150 mM NaCl and 2.5 mM MgCl2). […] After compound incubation, samples were subjected to immunoprecipitation with the CST anti-Sestrin2 antibody for 1.5 hours followed by a 30-minute incubation with protein-A sepharose as described in L. Chantranupong, et al., Cell Reports 9:1-8 (2014). The sepharose conjugated antibody-protein complex was precipitated via centrifugation and the flow-through was subjected to a second round of immunoprecipitation with a rabbit polyclonal anti-Sestrin2 antibody (Protein Tech, #10795-1-AP) to determine that total Sestrin2 protein levels between samples were equal. SDS-PAGE was performed with the immunoprecipitation samples followed by western-blot with the mouse monoclonal anti-Sestrin2 antibody from SIGMA (cat #WH0083667M3). […] This version of the assay also measured increased instability of Sestrin2 induced by incubation with compounds.

SMILES | decrease in the intensity of the band corresponding to Sestrin2 (CST antibody immunoprecipitation)
CC(C)C[C@H](N)C(=O)O [leucine] | ≥ 50%
